Reference: patent publication US12187759B2, “TLR7 agonists” (Primmune Therapeutics, Inc., priority 2019, dated 2025)

Target: T1, human TLR7 (Homo sapiens, UniProt Q9NYK1)
T1 construct: host or cells: HEK293
T1 sequence (Q9NYK1 27-1049): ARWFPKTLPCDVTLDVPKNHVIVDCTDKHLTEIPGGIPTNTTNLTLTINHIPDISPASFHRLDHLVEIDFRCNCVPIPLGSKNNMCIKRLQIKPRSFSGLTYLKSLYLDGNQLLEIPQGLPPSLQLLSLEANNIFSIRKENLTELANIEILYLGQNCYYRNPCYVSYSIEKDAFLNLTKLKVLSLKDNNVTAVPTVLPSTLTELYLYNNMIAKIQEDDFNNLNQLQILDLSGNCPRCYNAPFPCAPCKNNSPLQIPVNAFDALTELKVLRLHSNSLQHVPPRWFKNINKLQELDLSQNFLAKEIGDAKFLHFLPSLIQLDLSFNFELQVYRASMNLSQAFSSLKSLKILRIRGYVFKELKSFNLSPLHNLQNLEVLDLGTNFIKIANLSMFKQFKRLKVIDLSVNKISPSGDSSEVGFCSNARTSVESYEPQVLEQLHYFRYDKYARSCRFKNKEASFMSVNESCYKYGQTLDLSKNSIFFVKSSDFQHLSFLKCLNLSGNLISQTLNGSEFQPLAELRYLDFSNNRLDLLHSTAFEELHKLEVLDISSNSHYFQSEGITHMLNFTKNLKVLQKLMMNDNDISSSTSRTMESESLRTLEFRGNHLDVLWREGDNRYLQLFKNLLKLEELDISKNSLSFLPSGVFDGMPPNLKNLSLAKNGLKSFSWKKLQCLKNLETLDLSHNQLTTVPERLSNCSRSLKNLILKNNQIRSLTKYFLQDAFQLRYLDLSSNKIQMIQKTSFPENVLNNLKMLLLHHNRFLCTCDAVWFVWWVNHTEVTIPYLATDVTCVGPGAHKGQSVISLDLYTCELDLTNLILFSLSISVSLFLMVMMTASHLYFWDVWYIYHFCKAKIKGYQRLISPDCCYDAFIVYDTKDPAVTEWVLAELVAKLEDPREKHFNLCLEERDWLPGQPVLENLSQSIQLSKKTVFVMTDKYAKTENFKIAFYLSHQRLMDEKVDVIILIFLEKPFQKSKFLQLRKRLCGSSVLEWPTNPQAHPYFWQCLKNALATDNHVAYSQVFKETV
Test: TLR7 reporter cell assay (HEK293 cells stably expressing human TLR7 with NF-κB-driven SEAP reporter)
Assay type: cell-based
Conditions: 15-24 hours
Summary of the method: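 HEK293 cells stably expressing human TLR7 with an NF-κB-driven SEAP reporter, treated with compound for 15-24 hours. SEAP read at OD 650 nm. EC50 fitted by nonlinear least squares, maximum set by 28.5 μM resiquimod.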

Emax at 500 µM (HEK293, 500 μM compound, SEAP activity (OD 650 nm) relative to 28.5 μM resiquimod, read-out: Response at 500 μM Compound as a Percent of Resiquimod Response): 74% | EC50 (fit of SEAP dose response, ymax from 28.5 μM resiquimod): 51 µM
Compound: CC[C@H](O)[C@@H]1C[C@@H](O)[C@H](n2c(=O)sc3c(=O)[nH]c(N)nc32)O1 [Compound A, 5-amino-3-((2R,3R,5S)-3-hydroxy-5-((S)-1-hydroxypropyl)tetrahydrofuran-2-yl)thiazolo[4,5-d]pyrimidine-2,7(3H,6H)-dione, reference compound]
